Data from US20240116985A1, “STAPLED PEPTIDES AND METHODS THEREOF” (priority 2020, published 2024).
Converted amounts (≈) assume the structure as drawn. Read-outs that look alike come from different tables or passages of the source.

Experiments:
CHI Log D procedure = assay type: physicochemical; conditions: for CHI Log D: pH 7.4; for chromatographic logD: pH 7.4, CHI Log D
Solubility in PBS = assay type: physicochemical
In short: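 Read-out is the HPLC peak area of the supernatant from ultracentrifuged PBS solution, scaled against a 50 μM peptide DMSO injection; value reported as [(PBS area)/(DMSO area)]*50 uM.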

[1] = target: T1, full-length beta-Catenin (Uniprot ID P35222) (Homo sapiens, UniProt P35222); assay: Fluorescence polarization IC50 (beta-catenin / 5FAM-TCF4 10-53 competition); assay type: binding
T1 construct: 10 nM full-length beta-Catenin (Uniprot ID P35222)
T1 sequence (P35222 1-781): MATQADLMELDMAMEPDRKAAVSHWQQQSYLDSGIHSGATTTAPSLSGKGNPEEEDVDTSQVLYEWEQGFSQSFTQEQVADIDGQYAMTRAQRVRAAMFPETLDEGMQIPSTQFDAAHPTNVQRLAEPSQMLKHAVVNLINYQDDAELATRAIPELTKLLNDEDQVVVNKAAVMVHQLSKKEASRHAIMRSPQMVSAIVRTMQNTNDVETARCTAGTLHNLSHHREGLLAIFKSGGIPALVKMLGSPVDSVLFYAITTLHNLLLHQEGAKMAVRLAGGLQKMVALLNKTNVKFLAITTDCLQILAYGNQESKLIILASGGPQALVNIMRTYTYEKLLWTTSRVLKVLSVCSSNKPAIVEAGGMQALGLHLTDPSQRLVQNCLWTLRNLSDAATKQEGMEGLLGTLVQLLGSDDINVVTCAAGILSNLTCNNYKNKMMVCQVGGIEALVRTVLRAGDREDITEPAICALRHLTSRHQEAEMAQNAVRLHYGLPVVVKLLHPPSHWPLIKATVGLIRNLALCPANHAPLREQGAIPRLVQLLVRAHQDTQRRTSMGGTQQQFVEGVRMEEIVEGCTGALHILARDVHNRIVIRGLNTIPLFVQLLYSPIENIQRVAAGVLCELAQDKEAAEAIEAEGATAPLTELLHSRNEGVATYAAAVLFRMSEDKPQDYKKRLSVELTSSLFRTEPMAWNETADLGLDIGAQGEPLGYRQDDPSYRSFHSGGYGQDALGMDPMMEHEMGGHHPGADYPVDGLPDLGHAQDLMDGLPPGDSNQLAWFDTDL

[2] = target: T2, beta-catenin/TCF4 engagement (Homo sapiens, UniProt P35222); assay: Nano-BRET target engagement assay (B-cat-Halo & TCF4-Luc in HEK293 cells); assay type: cell-based
T2 construct: expressed in transfected cells; host or cells: HEK293
T2 sequence (P35222 1-781): T1 sequence (P35222 1-781)

[3] = fluorescence polarization, read-out: beta-Catenin FP IC50
[4] = absolute IC50, read-out: NanoBRET Abs IC50

Structure (SMILES) | CHI Log D (CHI Log D procedure) | Solubility (Solubility in PBS) | IC50 [1, 3] | IC50 ([1]; read-out: FP EC50) | IC50 [2, 4] | chromatographic logD (CHI Log D procedure) | Solubility (Solubility in PBS; Solubility (uM)) | IC50 ([2]; read-out: NanoBRET IC50)
CC[C@@H]1NC(=O)[C@H](CC(=O)O)NC(=O)[C@]2(CC=CCCCC3(CCCC=CCCCCCC[C@@](C)(C(=O)N[C@@H](Cc4ccccc4)C(=O)N[C@@H](Cc4csc5ccccc45)C(=O)N[C@@H](Cc4c[nH]cn4)C(N)=O)NC(=O)[C@H](CCC(N)=O)NC(=O)[C@H](Cc4ccccc4)NC(=O)[C@H](C)NC(=O)[C@H](C)NC(=O)[C@H](CCC(=O)O)NC(=O)[C@H](CC(=O)O)NC3=O)NC1=O)CCCN2C(C)=O (stereo partly drawn) [I-571, Ac-PL3-Asp-Abu-B5-Asp-Glu-Ala-Ala-Phe-Gln-S8-Phe-BztA-His-NH2] | 2.245 | 24 µM (≈ 44.7 µg/mL) | 32 nM | 32 nM | 15.6 µM | – | – | –
CC[C@@H]1NC(=O)[C@H](CC(=O)O)NC(=O)[C@]2(CC=CCCCC3(CCCC=CCCCCCC[C@@](C)(C(=O)N[C@@H](Cc4ccccc4)C(=O)N[C@@H](Cc4csc5ccccc45)C(=O)N[C@@H](CCC(N)=O)C(N)=O)NC(=O)[C@H](CC(N)=O)NC(=O)[C@H](Cc4ccccc4)NC(=O)[C@H](C)NC(=O)[C@H](C)NC(=O)[C@H](CC(=O)O)NC(=O)[C@H](CC(=O)O)NC3=O)NC1=O)CCCN2C(C)=O (stereo partly drawn) [I-573, Ac-PL3-Asp-Abu-B5-Asp-Asp-Ala-Ala-Phe-Asn-S8-Phe-BztA-Gln-NH2] | 2.116 | 49 µM (≈ 89.5 µg/mL) | 36 nM | 36 nM | 33.3 µM | – | – | –
CC[C@@H]1NC(=O)[C@H](CC(=O)O)NC(=O)[C@]2(CC=CCCCC3(CCCC=CCCCCCC[C@@](C)(C(=O)N[C@@H](Cc4ccccc4)C(=O)N[C@@H](Cc4csc5ccccc45)C(=O)N[C@@H](Cc4c[nH]cn4)C(N)=O)NC(=O)[C@H](CC(N)=O)NC(=O)[C@H](Cc4ccccc4)NC(=O)[C@H](C)NC(=O)[C@H](C)NC(=O)[C@H](CC(=O)O)NC(=O)[C@H](CC(=O)O)NC3=O)NC1=O)CCCN2C(C)=O (stereo partly drawn) [I-574, Ac-PL3-Asp-Abu-B5-Asp-Asp-Ala-Ala-Phe-Asn-S8-Phe-BztA-His-NH2] | 2.16 | 48 µM (≈ 88.1 µg/mL) | 36 nM | 36 nM | > 20 µM | – | – | –
CC(=O)N1CCC[C@]12CC=CCCCC1(CCCC=CCCCCCC[C@@](C)(C(=O)N[C@@H](Cc3ccccc3)C(=O)N[C@@H](Cc3csc4ccccc34)C(=O)N[C@@H](CCC(N)=O)C(N)=O)NC(=O)[C@H](CC(N)=O)NC(=O)[C@H](Cc3ccccc3)NC(=O)[C@H](C)NC(=O)[C@H](C)NC(=O)[C@H](CCC(=O)O)NC(=O)[C@H](CC(=O)O)NC1=O)NC(=O)[C@H](CC(C)C)NC(=O)[C@H](CC(=O)O)NC2=O (stereo partly drawn) [I-576, Ac-PL3-Asp-Leu-B5-Asp-Glu-Ala-Ala-Phe-Asn-S8-Phe-BztA-Gln-NH2] | 2.348 | 46 µM (≈ 86 µg/mL) | 23 nM | 23 nM | 11.1 µM | – | – | –
CC(=O)N1CCC[C@]12CC=CCCCC1(CCCC=CCCCCCC[C@@](C)(C(=O)N[C@@H](Cc3ccccc3)C(=O)N[C@@H](Cc3csc4ccccc34)C(=O)N[C@@H](CCC(N)=O)C(N)=O)NC(=O)[C@H](CC(N)=O)NC(=O)[C@H](Cc3ccccc3)NC(=O)[C@H](C)NC(=O)[C@H](C)NC(=O)[C@H](CCC(=O)O)NC(=O)[C@H](CC(=O)O)NC1=O)NC(=O)[C@H](CC(C)C)NC(=O)[C@H](CC(=O)O)NC2=O (stereo partly drawn) [I-577, Ac-PL3-Asp-Leu-B5-Asp-Glu-Ala-Ala-Phe-Asn-S8-Phe-BztA-Gln-NH2] | 2.376 | 47 µM (≈ 87.9 µg/mL) | 13 nM | 13 nM | 10.4 µM | – | – | –
CC(=O)N1CCC[C@]12CC=CCCCC1(CCCC=CCCCCCC[C@@](C)(C(=O)N[C@@H](Cc3ccccc3)C(=O)N[C@@H](Cc3csc4ccccc34)C(=O)N[C@@H](Cc3c[nH]cn3)C(N)=O)NC(=O)[C@H](CC(N)=O)NC(=O)[C@H](Cc3ccccc3)NC(=O)[C@H](C)NC(=O)[C@H](C)NC(=O)[C@H](CC(=O)O)NC(=O)[C@H](CC(=O)O)NC1=O)NC(=O)[C@H](CC(C)(C)C)NC(=O)[C@H](CC(=O)O)NC2=O (stereo partly drawn) [I-582, Ac-PL3-Asp-Npg-B5-Asp-Asp-Ala-Ala-Phe-Asn-S8-Phe-BztA-His-NH2] | – | – | 17.5 nM | – | 15.8 µM | 2.5 | 22 µM (≈ 41.3 µg/mL) | –
CC(=O)N1CCC[C@]12CC=CCCCC1(CCCC=CCCCCCC[C@@](C)(C(=O)N[C@@H](Cc3ccccc3)C(=O)N[C@@H](Cc3csc4ccccc34)C(=O)N[C@@H](CCC(N)=O)C(N)=O)NC(=O)[C@H](CC(N)=O)NC(=O)[C@H](Cc3ccccc3)NC(=O)[C@H](C)NC(=O)[C@H](C)NC(=O)[C@H](CCC(=O)O)NC(=O)[C@H](CC(=O)O)NC1=O)NC(=O)[C@H](CC1CCCCC1)NC(=O)[C@H](CC(=O)O)NC2=O (stereo partly drawn) [I-620, Ac-PL3-Asp-Cha-B5-Asp-Glu-Ala-Ala-Phe-Asn-S8-Phe-BztA-Gln-NH2] | 2.688 | 48 µM (≈ 91.6 µg/mL) | 35 nM | 35 nM | 12 µM | – | – | 5.8 µM
CC(=O)N1CCC[C@]12CC=CCCCC1(CCCC=CCCCCCC[C@@](C)(C(=O)N[C@@H](Cc3ccccc3)C(=O)N[C@@H](Cc3csc4ccccc34)C(N)=O)NC(=O)[C@H](CCCNC(N)=O)NC(=O)[C@H](Cc3ccccc3)NC(=O)[C@H](C)NC(=O)[C@H](C)NC(=O)[C@H](CCC(=O)O)NC(=O)[C@H](CC(=O)O)NC1=O)NC(=O)[C@H](CC(C)C)NC(=O)[C@H](CC(=O)O)NC2=O (stereo partly drawn) [I-629, Ac-PL3-Asp-Leu-B5-Asp-Glu-Ala-Ala-Phe-Cit-S8-Phe-BztA-NH2] | 3.109 | 40 µM (≈ 71.4 µg/mL) | 36 nM | 685 nM | 30 µM | – | – | –
CC[C@H](C)[C@@H]1NC(=O)[C@H](CC(=O)O)NC(=O)[C@]2(CC=CCCCC3(CCCC=CCCCCCC[C@@](C)(C(=O)N[C@@H](Cc4ccccc4)C(=O)N[C@@H](Cc4csc5ccccc45)C(=O)N[C@@H](CCC(N)=O)C(N)=O)NC(=O)[C@H](CCC(N)=O)NC(=O)[C@H](Cc4ccccc4)NC(=O)[C@H](C)NC(=O)[C@H](CCC(N)=O)NC(=O)[C@H](CCC(=O)O)NC(=O)[C@H](CC(=O)O)NC3=O)NC1=O)CCCN2C(C)=O (stereo partly drawn) [I-654, Ac-PL3-Asp-Ile-B5-Asp-Glu-Gln-Ala-Phe-Gln-S8-Phe-BztA-Gln-NH2] | 2.121 | 47 µM (≈ 91.2 µg/mL) | 20 nM | 20 nM | 15 µM | – | – | –
CC[C@H](C)[C@@H]1NC(=O)[C@H](CC(=O)O)NC(=O)[C@]2(CC=CCCCC3(CCCC=CCCCCCC[C@@](C)(C(=O)N[C@@H](Cc4ccccc4)C(=O)N[C@@H](Cc4csc5ccccc45)C(=O)N[C@@H](CCC(N)=O)C(N)=O)NC(=O)[C@H](CCC(N)=O)NC(=O)[C@H](Cc4ccccc4)NC(=O)[C@H](CO)NC(=O)[C@H](C)NC(=O)[C@H](CCC(=O)O)NC(=O)[C@H](CC(=O)O)NC3=O)NC1=O)CCCN2C(C)=O (stereo partly drawn) [I-662, Ac-PL3-Asp-Ile-B5-Asp-Glu-Ala-Ser-Phe-Gln-S8-Phe-BztA-Gln-NH2] | 2.125 | 46 µM (≈ 87.4 µg/mL) | 26 nM | 26 nM | 16.1 µM | – | – | –
CC(=O)N1CCC[C@]12CC=CCCCC1(CCCC=CCCCCCC[C@@](C)(C(=O)N[C@@H](Cc3ccccc3)C(=O)N[C@@H](Cc3csc4ccccc34)C(=O)N[C@@H](CCC(N)=O)C(N)=O)NC(=O)[C@H](CC(N)=O)NC(=O)[C@H](Cc3ccccc3)NC(=O)[C@H](C)NC(=O)[C@H](C)NC(=O)[C@H](CCC(=O)O)NC(=O)[C@H](CC(=O)O)NC1=O)NC(=O)[C@H](CC(C)(C)C)NC(=O)[C@H](CC(=O)O)NC2=O (stereo partly drawn) [I-677, Ac-PL3-Asp-Npg-B5-Asp-Glu-Ala-Ala-Phe-Asn-S8-Phe-BztA-Gln-NH2] | – | – | 22 nM | – | 6.7 µM | 2.45 | 49 µM (≈ 92.3 µg/mL) | –
